Reference: patent EP0492277A2, “Cephalosporin derivatives” (F. HOFFMANN-LA ROCHE AG, priority 1990, dated 1992)

Tests used:
Assay in all cases: MIC, Agar Dilution Method
Assay type in all cases: cell-based
Str. faecalis ATCC 29212 = test system: Str. faecalis ATCC 29212
Protocol: (§1) In vitro activity of the compounds of the present invention was measured by the Minimum Inhibitory Concentration (MIC) in micrograms/ml utilizing the Agar Dilution Method, which is well known in the art, against a variety of gram-negative and gram-positive organisms.

Staph. aureus 753 = test system: Staph. aureus 753
Protocol: as §1

[1] = test system: Ps. aeruginosa ATCC 27853
Protocol: as §1

E. coli TEM-1 = test system: E. coli TEM-1
Protocol: as §1

Ps. aeruginosa 18SH = test system: Ps. aeruginosa 18SH
Protocol: as §1

Cit. freundi BS-16 = test system: Cit. freundi BS-16
Protocol: as §1

Ps. aeruginosa 8780 = test system: Ps. aeruginosa 8780
Protocol: as §1

Enter. cloacae 5699 = test system: Enter. cloacae 5699
Protocol: as §1

E. coli 257 = test system: E. coli 257
Protocol: as §1

Staph. aureus 1059B = test system: Staph. aureus 1059B
Protocol: as §1

Ps. aeruginosa 5712 = test system: Ps. aeruginosa 5712
Protocol: as §1

Prot. vulgaris ATCC 6380 = test system: Prot. vulgaris ATCC 6380
Protocol: as §1

Staph. aureus 67 = test system: Staph. aureus 67
Protocol: as §1

Ser. marcescens 1071 = test system: Ser. marcescens 1071
Protocol: as §1

Ser. marcescens SM = test system: Ser. marcescens SM
Protocol: as §1

Str. pneumoniae 6301 = test system: Str. pneumoniae 6301
Protocol: as §1

Staph. aureus ATCC 29213 = test system: Staph. aureus ATCC 29213
Protocol: as §1

Staph. aureus Smith = test system: Staph. aureus Smith
Protocol: as §1

K. pneumoniae A = test system: K. pneumoniae A
Protocol: as §1

Ps. aeruginosa 765 = test system: Ps. aeruginosa 765
Protocol: as §1

Prot. mirabilis 90 = test system: Prot. mirabilis 90
Protocol: as §1

Str. pyogenes 4 = test system: Str. pyogenes 4
Protocol: as §1

Enter. cloacae P99 = test system: Enter. cloacae P99
Protocol: as §1

E. coli ATCC 25922 = test system: E. coli ATCC 25922
Protocol: as §1

Prot. vulgaris 1028 BC = test system: Prot. vulgaris 1028 BC
Protocol: as §1

Substance	IN VITRO MIC (Str. faecalis ATCC 29212) [µg/mL]	IN VITRO MIC (Staph. aureus 753) [µg/mL]	IN VITRO MIC [1] [µg/mL]	IN VITRO MIC (E. coli TEM-1) [µg/mL]	IN VITRO MIC (Ps. aeruginosa 18SH) [µg/mL]	IN VITRO MIC (Cit. freundi BS-16) [µg/mL]	IN VITRO MIC (Ps. aeruginosa 8780) [µg/mL]	IN VITRO MIC (Enter. cloacae 5699) [µg/mL]	IN VITRO MIC (E. coli 257) [µg/mL]	IN VITRO MIC (Staph. aureus 1059B) [µg/mL]	IN VITRO MIC (Ps. aeruginosa 5712) [µg/mL]	IN VITRO MIC (Prot. vulgaris ATCC 6380) [µg/mL]	IN VITRO MIC (Staph. aureus 67) [µg/mL]	IN VITRO MIC (Ser. marcescens 1071) [µg/mL]	IN VITRO MIC (Ser. marcescens SM) [µg/mL]	IN VITRO MIC (Str. pneumoniae 6301) [µg/mL]	IN VITRO MIC (Staph. aureus ATCC 29213) [µg/mL]	IN VITRO MIC (Staph. aureus Smith) [µg/mL]	IN VITRO MIC (K. pneumoniae A) [µg/mL]	IN VITRO MIC (Ps. aeruginosa 765) [µg/mL]	also measured
[6R-[6a,7β(Z)]]-7-[[(2-Amino-4-thiazolyl)[(carboxymethoxy)imino]acetyl]amino]-3-[[4-(3-carboxy-1-cyclopropyl-6-fluoro-1,4-dihydro-4-oxo-7-quinolinyl)-1-piperazinyl]methyl]-8-oxo-5-thia-1-azabicyclo[4.2.0]-oct-2-ene-2-carboxylic acid sodium salt [Compound B]	16	8	16	0.5	4	1	8	1	0.25	2	32	0.25	32	2	1	0.25	8	8	1	8	IN VITRO MIC (Prot. mirabilis 90): 2 µg/mL; IN VITRO MIC (Str. pyogenes 4): 0.125 µg/mL; IN VITRO MIC (Enter. cloacae P99): 0.25 µg/mL; IN VITRO MIC (E. coli ATCC 25922): 0.5 µg/mL; IN VITRO MIC (Prot. vulgaris 1028 BC): 1 µg/mL
[6R-[6α,7β(Z)]]-7-[[(2-Amino-4-thiazolyl)[(1-carboxyl-1-methylethoxy)imino]acetyl]amino]-3-[[4-(3-carboxy-1-cyclopropyl-6-fluoro-1,4-dihydro-4-oxo-7-quinolinyl)-1-piperazinyl]methyl]-8-oxo 5-thia-1-azabicyclo[4.2.0]-oct-2-ene-2-carboxylic acid sodium salt [Compound A]	8	8	8	0.5	2	0.125	8	1	0.25	4	16	0.5	16	1	1	0.25	8	8	0.5	8	IN VITRO MIC (Prot. mirabilis 90): 2 µg/mL; IN VITRO MIC (Str. pyogenes 4): 0.25 µg/mL; IN VITRO MIC (Enter. cloacae P99): 0.5 µg/mL; IN VITRO MIC (E. coli ATCC 25922): 0.25 µg/mL; IN VITRO MIC (Prot. vulgaris 1028 BC): 1 µg/mL
